From patent US20220105152A1, “Composition for and Method of Treating Hepatic Tissue Injury” (OHIO STATE INNOVATION FOUNDATION, priority 2019, published 2022)
Read-outs that look alike come from different tables or passages of the source.

How the values were obtained:
[1] = test system: hepatocytes of C57BL/6J mice; experiment: Confocal imaging of fluorescent-labelled rhMG53 transfer from bloodstream to liver; assay type: in vivo; details: FIG. 3
Source text: We determined that MG53 transfers from the circulatory system to the liver upon occurrence of DILI. We used a mouse model of acetaminophen-induced (APAP-induced) hepatic injury to determine whether MG53 can transfer from circulation to the liver to target the injured hepatocytes.

[2] = test system: mouse hepatocytes; experiment: MTT assay, APAP-injured mouse hepatocytes; assay type: cell-based; details: rhMG53 10 or 50 μg/ml, APAP 10 mM, 24 h, FIG. 14B
Protocol: (§1) The data herein can be extrapolated to develop suitable protective doses for humans and large animals.
(§2) Primary hepatocytes were isolated from adult mice. To isolate primary murine hepatocytes, anesthetized and heparinized mice were subjected to a midline laparotomy and cannulation of the portal vein followed by liver perfusion with an EGTA-chelating perfusion buffer (190 mg EGTA, 900 mg glucose, 10 mL of 1 M HEPES, 400 mg KCl, 305 mg Na2HPO4.12H2O, 8 g NaCl, 88 mg Na2HPO4.2H2O, and 350 mg NaHCO3 into a final volume of 1 L of sterile dH2O). After perfusion with 0.4% collagenase buffer (560 mg CaCl2).2H2O, 10 mL of 1 M HEPES, 400 mg KCl, 305 mg Na2HPO4.12H2O, 8 g NaCl, 88 mg Na2HPO4. 2H2O, 350 mg NaHCO3, and 400 mg collagenase IV into a final volume of 1 L of sterile dH2O), livers were minced, and cells were dispersed in culture medium; hepatocytes and nonparenchymal cells were separated using low-speed centrifugation and 40% Percoll density gradient centrifugation.
A hepatoma-derived HepG2 cell line was purchased from the China Cell Line Bank (Beijing China). Cells were cultured in DMEM containing 100 U/ml penicillin, 100 U/ml streptomycin, 10% FBS, and 3 mM glutamine at 37° C. with 95% air, and 5% CO2. […] Subsequently, the MTT solution was discarded, DMSO was added to each well, and absorbance was measured.

[3] = test system: MLKL; experiment: MLKL phosphorylation and membrane translocation; assay type: cell-based
Source text: We unexpectedly discovered that exogenous MG53 added to the circulatory system (blood) provides protection against hepatic tissue injury and provides therapeutic treatment of injured hepatic tissue. Addition of rhMG53 to APAP-treated hepatocytes improves membrane integrity and increases survival of the cells as evidenced by the reduced release of LDH and entry of fluorescent dyes. […] MG53 reduces MLKL phosphorylation and membrane translocation, thus leading to the […] of MLKL-mediated disintegration of the hepatocellular membrane. Through biochemical and molecular studies, we identified RIPK3 as an E3-ligase substrate for MG53. The systemically administered rhMG53 enters the injured hepatocytes to target polyubiquitination of RIPK3 for proteasome-dependent protein degradation. […]
Crude extracts from dissected regions of the mouse liver were washed twice with ice-cold phosphate-buffered saline (PBS) and lysed in radio immunoprecipitation assay buffer (10 mM tris-HCl (pH 7.2), 150 mM NaCl, 1% NP-40, 0.5% SDS, and 0.5% deoxycholate), supplemented with a cocktail of protease inhibitors (Sigma) and phosphatase inhibitors (Thermo Scientific). […] Membranes were washed 3 times with TBS-T. Bound complexes were detected using the Odyssey Infrared Imaging System. Images were analyzed using the Odyssey Application Software to obtain the integrated intensities. […]

[4] = test system: TAA chemical-induced liver injury in C57BL/6J mice; experiment: TAA-induced liver injury in mice; assay type: in vivo; details: TAA 200 mg/kg, rhMG53 i.p. after injury; FIGS. 12, 13
Protocol: (§3) We also determined the efficacy of exogenous MG53 to protection against DILI caused by other chemicals. MG53 provided protective benefits when evaluated against carbon tetrachloride (CCl4) and thioacetamide (TAA). C57BL/6J mice were injected with CCl4 or TAA to cause chemical-induced liver injury and subsequently treated with MG53 via i.p. administration (Example 7). Liver tissue was biopsied and examined under microscope. The extent of necrotic tissue formation and the level of AST expression were quantified.

[5] = test system: CCl4 chemical-induced liver injury in C57BL/6J mice; experiment: CCl4-induced liver injury in mice; assay type: in vivo; details: CCl4 2 ml/kg, rhMG53 i.p. after injury; FIGS. 12, 13
Protocol: as §3

[6] = test system: APAP-treated hepatocytes; experiment: Membrane integrity of APAP-treated hepatocytes (LDH release, fluorescent dye entry); assay type: cell-based; details: rhMG53 added to APAP-treated hepatocytes
Source text: (§4) We unexpectedly discovered that exogenous MG53 added to the circulatory system (blood) provides protection against hepatic tissue injury and provides therapeutic treatment of injured hepatic tissue. Addition of rhMG53 to APAP-treated hepatocytes improves membrane integrity and increases survival of the cells as evidenced by the reduced release of LDH and entry of fluorescent dyes. […] MG53 reduces MLKL phosphorylation and membrane translocation, thus leading to the […] of MLKL-mediated disintegration of the hepatocellular membrane. Through biochemical and molecular studies, we identified RIPK3 as an E3-ligase substrate for MG53. The systemically administered rhMG53 enters the injured hepatocytes to target polyubiquitination of RIPK3 for proteasome-dependent protein degradation. In this way, the intracellular action of MG53 adds defensive value to hepatocellular protection by reducing stress-induced activation of the RIPK3-MLKL death signaling.
HpeG2 were seeded in 35 mm glass bottom dishes at a density of 1×10^4 cells/cm^2 and incubated over overnight. […] After rinsing with Tyrode's solution, the cells were mixed with FM1-43 dye. […] Dye entry into the cells was monitored continuously with fluorescence confocal microscope (Eclipse Ti-U, Nikon Corporation, Tokyo, Japan) immediately after mixing with the dye. […]

[7] = test system: APAP-induced liver injury in mg53−/− mice; experiment: APAP-induced hepatotoxicity in mg53−/− mice; assay type: in vivo
Protocol: We determined, however, that the amount of endogenous MG53 provided by the body is on its own insufficient to overcome DILI. Pilot studies were conducted to explore the dose dependence of APAP-induced hepatotoxicity in mice. […] Therefore, the 350 mg/kg dose was used for the comparative studies with mg53−/− mice and their littermate wild-type controls.
We also determined whether exogenous MG53 administered to a subject might be sufficient to prevent or reduce the severity of DILI.
mg53−/− mice and their wild type littermates were generated, bred and genotyped as previously described (Cai, C., et al. MG53 nucleates assembly of cell membrane repair machinery. Nature cell biology 11, 56-64 (2009); Cai, C., et al. MG53 regulates membrane budding and exocytosis in muscle cells. The Journal of biological chemistry 284, 3314-3322 (2009); Cai, C., et al. Membrane repair defects in muscular dystrophy are linked to altered interaction between MG53, caveolin-3, and dysferlin. The Journal of biological chemistry 284, 15894-15902 (2009)), the entire disclosures of which are hereby incorporated by reference. To ensure data reproducibility, mouse tail samples are retained and cataloged for secondary future validation, if necessary. The mg53−/− mouse line has been previously validated.

[8] = test system: HepG2 hepatocytes; experiment: MTT assay, APAP-injured HepG2; assay type: cell-based; details: rhMG53 10 or 50 μg/ml, APAP 10 mM, 24 h, FIG. 14A
Protocol: as §1
A hepatoma-derived HepG2 cell line was purchased from the China Cell Line Bank (Beijing China). Cells were cultured in DMEM containing 100 U/ml penicillin, 100 U/ml streptomycin, 10% FBS, and 3 mM glutamine at 37° C. with 95% air, and 5% CO2. […] Then, an MTT solution (5 mg/ml) was added to the cells, followed by incubation for another 4 h. Subsequently, the MTT solution was discarded, DMSO was added to each well, and absorbance was measured.

[9] = test system: HepG2 cells; experiment: Propidium iodide staining of necrotic cell death after APAP; assay type: cell-based; details: rhMG53 and APAP vs APAP only; FIG. 11
Source text: We also determined that exogenous MG53 can reduce the extent of hepatic cell death following injury of hepatic tissue.

[10] = test system: primary hepatocytes from wild-type and dysferlin−/− mice; experiment: Hypoxia/reoxygenation (H/R) injury of primary hepatocytes; assay type: cell-based; details: for cell viability of hepatocytes: 3 hours hypoxia, 3 hours reoxygenation, FIGS. 10A, 10B
Protocol: We also determined that the protective effect of MG53 could be extended beyond DILI to hypoxia/reoxygenation-induced (H/R-induced) liver injury. We isolated primary hepatocytes from wild-type and dysferlin−/− mice. […] With the addition of 10 μg/ml or 50 μg/ml of rhMG53, increased cell viability of hepatocytes was observed.
as §2
Isolated mouse hepatocytes (2×10^5/well) were cultured on 24-well collagen-coated plates in William's Medium E (Gibco, Life Technologies, Foster City, Calif.) with 10% FBS at 37° C. with 5% CO2 for 4 hours. To assess the purity of primary hepatocytes, cells were subjected to BD Cytofix/Cytoperm and Fc Block (BD Biosciences) according to manufacturer's instructions. Hepatocytes were then stained with primary antibody against albumin (1 ug/1×10^6 cells; Novus Biologicals) and secondary AlexaFluor 594 antibody (1 ug/1×10^6 cells; Cellsignal) and analyzed by flow cytometry using a BD LSRFortessa (BD Bioscience)).

[11] = target: T1, RIPK3 (Homo sapiens, UniProt Q9Y572); experiment: Biochemical and molecular studies of E3-ligase substrate
T1 construct: endogenous in cells; host or cells: HepG2
T1 sequence (Q9Y572 whole entry): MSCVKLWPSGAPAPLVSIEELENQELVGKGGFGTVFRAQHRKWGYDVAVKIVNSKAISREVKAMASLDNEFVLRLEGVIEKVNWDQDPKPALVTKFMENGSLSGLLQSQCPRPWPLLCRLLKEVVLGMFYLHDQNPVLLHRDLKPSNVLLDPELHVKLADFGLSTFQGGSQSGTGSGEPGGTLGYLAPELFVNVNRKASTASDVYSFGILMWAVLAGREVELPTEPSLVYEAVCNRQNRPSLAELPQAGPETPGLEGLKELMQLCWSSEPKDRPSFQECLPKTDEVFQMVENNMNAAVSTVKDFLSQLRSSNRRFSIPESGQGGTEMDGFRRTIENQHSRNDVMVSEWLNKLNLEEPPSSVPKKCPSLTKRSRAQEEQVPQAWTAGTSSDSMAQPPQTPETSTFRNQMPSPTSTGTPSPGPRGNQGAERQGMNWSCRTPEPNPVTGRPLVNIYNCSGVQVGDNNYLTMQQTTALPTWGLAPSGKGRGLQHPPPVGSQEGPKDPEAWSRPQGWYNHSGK
Source text: as §4
Cell lysates (800 μg protein/mL supernatant) were incubated with anti-MG53 or anti-MLKL, anti-RIPK3 antibody (1 μg/mL) for 1 hour, and protein-G agarose at 4° C. for 12 hours. The immunoprecipitates were suspended in Laemmli buffer, boiled for 10 minutes, divided into 2 aliquots, electrophoresed, transferred, and subjected to immunoblotting with the anti-MLKL, anti-RIPK3, and anti-MG53 antibodies. […]

[12] = test system: APAP-induced hepatic injury in C57BL/6J mice; details: for therapeutic effect as determined by the survival rate: FIG. 8

Substance: Alexa647-rhMG53: rhMG53 protein conjugated with an Alexa647 fluorescent probe
- fluorescent signal in hepatocytes ([1]; 1 mg/kg intravenously prior to APAP 350 mg/kg i.p., injured hepatocytes): clearly visible
- fluorescent signal in liver ([1]; 1 mg/kg intravenously, untreated mouse liver (no APAP)): no Alexa647-rhMG53 signal was visible

Substance: rhMG53: recombinant human MG53 protein (mitsugumin 53, TRIM72) obtained by E. coli fermentation
- protective activity against APAP-induced injury (viability) [2]: dose-dependent protective activity
- MLKL phosphorylation and membrane translocation [3]: reduces
- liver tissue injury (necrotic tissue formation, AST level) [4]: protective activity
- liver tissue injury (necrotic tissue formation, AST level) [5]: protective activity
- entry of fluorescent dyes [6]: reduced
- release of LDH [6]: reduced
- necrosis of hepatic tissue ([7]; exogenous MG53 administered to mg53−/− mice with injured liver tissue): substantial reduction
- serum levels of AST ([7]; mg53−/− mice receiving rhMG53 treatment, APAP 350 mg/kg): reduced
- healing of liver tissue (immunofluorescent confocal imaging) ([7]; mg53−/− mice, exogenous MG53 before or after chemical-induced liver injury): improved healing
- survival of the mg53−/− mice ([7]; rhMG53 1 mg/kg i.p. prior to APAP 350 mg/kg, FIG. 4): improved
- protective activity against APAP-induced injury (viability) [8]: dose-dependent protective activity
- necrotic cell death (PI staining) [9]: significant reduction
- cell viability of hepatocytes ([10]; 10 μg/ml): increased
- cell viability of hepatocytes ([10]; 50 μg/ml): increased
- AST in the culture medium ([10]; H/R-treated wild type hepatocytes): dose-dependent effect of rhMG53 in the reduction
- E3-ligase substrate identified [11]: RIPK3
- necrotic injury to the liver tissue ([12]; rhMG53 1 mg/kg 12 hours after APAP 300 mg/kg i.p.): reduced
- serum levels of AST ([12]; rhMG53 1 mg/kg 12 hours after APAP 300 mg/kg i.p., FIG. 9): reduction
- serum levels of AST ([12]; rhMG53 1.0 mg/kg i.p. 30 min before 350 mg/kg APAP, FIG. 6): reduced
- necrotic injuries to the mouse liver ([12]; rhMG53 1.0 mg/kg i.p. 30 min before 350 mg/kg APAP, FIG. 7A, 7B): ameliorated
- survival rate ([12]; rhMG53 1.0 mg/kg i.p. 30 minutes before 500 mg/kg APAP, FIG. 5): increased
- therapeutic effect as determined by the survival rate ([12]; rhMG53 1 mg/kg i.p. 1 h after APAP 500 mg/kg): most apparent
- therapeutic effect as determined by the survival rate ([12]; rhMG53 1 mg/kg i.p. 6 hours after APAP 500 mg/kg): still evident
- healing of liver tissue (immunofluorescent confocal imaging) ([12]; wt mice, exogenous MG53 before or after chemical-induced liver injury): improved healing
